In ChEMBL document CHEMBL2169792, “Synthesis of new 4-thiazolidinone-, pyrazoline-, and isatin-based conjugates with promising antitumor activity” (J Med Chem, 2012):
Calls of active or inactive are those of the source. No cut-off for these calls is given here.

Experiments:
MDA-MB-468 = experiment: Cytotoxicity against human MDA-MB-468 cells after 48 hrs by SRB assay; format: functional; details: MDA-MB-468, 48 h
BT-549 = experiment: Cytotoxicity against human BT549 cells after 48 hrs by SRB assay; format: functional; details: BT-549, 48 h
MCF7 = experiment: Cytotoxicity against human MCF7 cells after 48 hrs by SRB assay; format: functional; details: MCF7, 48 h
RXF 393 = experiment: Cytotoxicity against human RXF393 cells after 48 hrs by SRB assay; format: functional; details: RXF 393, 48 h
CAKI-1 = experiment: Cytotoxicity against human CAKI-1 cells after 48 hrs by SRB assay; format: functional; details: CAKI-1, 48 h
ACHN = experiment: Cytotoxicity against human ACHN cells after 48 hrs by SRB assay; format: functional
786-0 = experiment: Cytotoxicity against human 786-0 cells after 48 hrs by SRB assay; format: functional; details: 786-0, 48 h
SK-OV-3 = experiment: Cytotoxicity against human SKOV3 cells after 48 hrs by SRB assay; format: functional; details: SK-OV-3, 48 h
NCI/ADR-RES = experiment: Cytotoxicity against human NCI/ADR-RES cells after 48 hrs by SRB assay; format: functional
OVCAR-8 = experiment: Cytotoxicity against human OVCAR8 cells after 48 hrs by SRB assay; format: functional; details: OVCAR-8, 48 h
OVCAR-5 = experiment: Cytotoxicity against human OVCAR5 cells after 48 hrs by SRB assay; format: functional; details: OVCAR-5, 48 h
OVCAR-4 = experiment: Cytotoxicity against human OVCAR4 cells after 48 hrs by SRB assay; format: functional; details: OVCAR-4, 48 h
IGROV-1 = experiment: Cytotoxicity against human IGROV1 cells after 48 hrs by SRB assay; format: functional; details: IGROV-1, 48 h
SK-MEL-5 [1] = experiment: Cytotoxicity against human SK-MEL-5 cells after 48 hrs by SRB assay; format: functional; details: SK-MEL-5, 48 h, read-out: LC50 (the source's name)
Malme-3M = experiment: Cytotoxicity against human MALME-3M cells after 48 hrs by SRB assay; format: functional
LOX IMVI = experiment: Cytotoxicity against human LOXIMVI cells after 48 hrs by SRB assay; format: functional
SNB-75 = experiment: Cytotoxicity against human SNB75 cells after 48 hrs by SRB assay; format: functional; details: SNB-75, 48 h
SNB-19 = experiment: Cytotoxicity against human SNB19 cells after 48 hrs by SRB assay; format: functional; details: SNB-19, 48 h
SF-539 = experiment: Cytotoxicity against human SF539 cells after 48 hrs by SRB assay; format: functional; details: SF-539, 48 h
SF-268 = experiment: Cytotoxicity against human SF268 cells after 48 hrs by SRB assay; format: functional; details: SF-268, 48 h
HT-29 = experiment: Cytotoxicity against human HT-29 cells after 48 hrs by SRB assay; format: functional; details: HT-29, 48 h
HCT-116 = experiment: Cytotoxicity against human HCT116 cells after 48 hrs by SRB assay; format: functional; details: HCT-116, 48 h
HCC 2998 = experiment: Cytotoxicity against human HCC2998 cells after 48 hrs by SRB assay; format: functional; details: HCC 2998, 48 h
COLO 205 = experiment: Cytotoxicity against human COLO205 cells after 48 hrs by SRB assay; format: functional; details: COLO 205, 48 h
NCI-H522 = experiment: Cytotoxicity against human NCI-H522 cells after 48 hrs by SRB assay; format: functional; details: NCI-H522, 48 h
NCI-H322M = experiment: Cytotoxicity against human NCI-H322M cells after 48 hrs by SRB assay; format: functional
A549 = experiment: Cytotoxicity against human A549 cells after 48 hrs by SRB assay; format: functional; details: A549, 48 h
RPMI-8226 = experiment: Cytotoxicity against human RPMI8226 cells after 48 hrs by SRB assay; format: functional; details: RPMI-8226, 48 h
CCRF-CEM = experiment: Cytotoxicity against human CCRF-CEM cells after 48 hrs by SRB assay; format: functional
[2] = Cytotoxicity against human non-small cell lung cancer cells after 48 hrs by SRB assay; format: functional; details: Cancer cell lines
[3] = Cytotoxicity against human prostate cancer cells after 48 hrs by SRB assay; format: functional; details: Cancer cell lines
[4] = Cytotoxicity against human renal cancer cells after 48 hrs by SRB assay; format: functional; details: Cancer cell lines
[5] = Cytotoxicity against human ovarian cancer cells after 48 hrs by SRB assay; format: functional; details: Cancer cell lines
[6] = Cytotoxicity against human leukemia cells after 48 hrs by SRB assay; format: functional; details: Leukemia cell
SK-MEL-5 [7] = experiment: Cytotoxicity against human SK-MEL-5 cells assessed as cell growth at 10 uM after 48 hrs by SRB assay; format: functional; details: SK-MEL-5, 48 h, read-out: Activity
Mus musculus = experiment: Antitumor activity in ip dosed athymic nude mouse hollow fiber model assessed as reduction of viable cell mass; format: functional, organism-based
[8] = read-out: LC50 (the source's name)

With `COc1ccc(C2CC(c3ccc4ccccc4c3)=NN2C2=NC(=O)/C(=C3\C(=O)Nc4ccc(Br)cc43)S2)cc1` (stereo not given) the GI50 (MDA-MB-468) was 0.0223 µM, the TGI (MDA-MB-468) was 0.0622 µM and the CC50 (MDA-MB-468; [8]) was 0.19 µM. For the same compound, the GI50 (BT-549) was 0.553 µM, the TGI (BT-549) was 7.74 µM and the CC50 (BT-549; [8]) was 35.1 µM. The GI50 (MCF7) was 0.0264 µM, the TGI (MCF7) was > 0.0747 µM and the CC50 (MCF7; [8]) was > 0.586 µM. For the same compound, the GI50 (RXF 393) was 0.0197 µM, the TGI (RXF 393) was 0.0403 µM and the CC50 (RXF 393; [8]) was 0.0822 µM. For the same compound, the GI50 (CAKI-1) was 0.0965 µM, the TGI (CAKI-1) was 0.608 µM and the CC50 (CAKI-1; [8]) was > 100 µM. For the same compound, the GI50 (ACHN) was 0.0267 µM, the TGI (ACHN) was 0.0646 µM and the CC50 (ACHN; [8]) was > 32.3 µM. The GI50 (786-0) was 0.0194 µM, the TGI (786-0) was 0.0387 µM and the CC50 (786-0; [8]) was > 0.0772 µM. The GI50 (SK-OV-3) was 0.033 µM, the TGI (SK-OV-3) was > 0.114 µM and the CC50 (SK-OV-3; [8]) was > 2.84 µM. The GI50 (NCI/ADR-RES) was 0.675 µM, the TGI (NCI/ADR-RES) was > 100 µM and the CC50 (NCI/ADR-RES; [8]) was > 100 µM. The GI50 (OVCAR-8) was 0.032 µM, the TGI (OVCAR-8) was 0.176 µM and the CC50 (OVCAR-8; [8]) was 24.1 µM. For the same compound, the GI50 (OVCAR-5) was 0.0336 µM, the TGI (OVCAR-5) was 0.131 µM and the CC50 (OVCAR-5; [8]) was 2.11 µM. For the same compound, the GI50 (OVCAR-4) was 0.0326 µM, the TGI (OVCAR-4) was > 0.111 µM and the CC50 (OVCAR-4; [8]) was > 100 µM. The GI50 (IGROV-1) was 0.0498 µM, the TGI (IGROV-1) was 0.451 µM and the CC50 (IGROV-1; [8]) was > 100 µM. For the same compound, the CC50 (SK-MEL-5 [1]) was 0.341 µM, the GI50 (Malme-3M) was 0.0277 µM and the TGI (Malme-3M) was 0.0729 µM. For the same compound, the CC50 (Malme-3M; [8]) was 0.64 µM, the GI50 (LOX IMVI) was 0.0243 µM and the TGI (LOX IMVI) was 0.0589 µM. The CC50 (LOX IMVI; [8]) was 0.249 µM, the GI50 (SNB-75) was 0.0159 µM and the TGI (SNB-75) was 0.0343 µM. The CC50 (SNB-75; [8]) was > 0.0698 µM, the GI50 (SNB-19) was 0.0385 µM and the TGI (SNB-19) was 0.411 µM. For the same compound, the CC50 (SNB-19; [8]) was 8.98 µM, the GI50 (SF-539) was 0.0231 µM and the TGI (SF-539) was 0.0542 µM. For the same compound, the CC50 (SF-539; [8]) was 0.296 µM, the GI50 (SF-268) was 0.0365 µM and the TGI (SF-268) was 0.222 µM. It also gave a CC50 (SF-268; [8]) of 9.63 µM, a GI50 (HT-29) of 0.199 µM and a TGI (HT-29) of 0.537 µM. For the same compound, the GI50 (HCT-116) was 0.018 µM, the TGI (HCT-116) was 0.0335 µM and the CC50 (HCT-116; [8]) was > 0.0624 µM. The GI50 (HCC 2998) was 0.0252 µM, the TGI (HCC 2998) was 0.0658 µM and the CC50 (HCC 2998; [8]) was 0.272 µM. The GI50 (COLO 205) was 0.021 µM, the TGI (COLO 205) was 0.042 µM and the CC50 (COLO 205; [8]) was > 0.0841 µM. The GI50 (NCI-H522) was 0.124 µM, the TGI (NCI-H522) was 0.288 µM and the GI50 (NCI-H322M) was 0.036 µM. The TGI (NCI-H322M) was 0.56 µM, the CC50 (NCI-H322M; [8]) was > 64.1 µM and the GI50 (A549) was 0.0247 µM. It also gave a TGI (A549) of 0.0695 µM, a CC50 (A549; [8]) of 25.7 µM and a GI50 (RPMI-8226) of 0.214 µM. The TGI (RPMI-8226) was 1.4 µM, the CC50 (RPMI-8226; [8]) was > 42.2 µM and the GI50 (CCRF-CEM) was 0.0329 µM. For the same compound, the TGI (CCRF-CEM) was 0.483 µM, the CC50 (CCRF-CEM; [8]) was > 100 µM and the GI50 [2] was 0.054 µM. It also gave a TGI [2] of 0.22 µM, a CC50 [2, 8] of 41.5 µM and a GI50 [3] of 0.059 µM. For the same compound, the LC50 [3] was 13.8 µM, the TGI [3] was 0.51 µM and the GI50 [4] was 0.064 µM. The LC50 [4] was 5.19 µM, the TGI [4] was 0.33 µM and the GI50 [5] was 0.11 µM. For the same compound, the LC50 (concentration causing 50% net cell kill) [5] was 18.8 µM, the TGI [5] was 0.85 µM and the GI50 [6] was 0.13 µM. For the same compound, the TGI [6] was 3.37 µM, the CC50 [6, 8] was 87.8 µM and the growth at 10 µM (SK-MEL-5 [7]) was -59.8%. The Activity (Mus musculus) was “inactive”.
